# Source: US12370235B2, “Synthetic, non-natural antimicrobial peptides inspired by Staphylococcus auricularis delta toxin” (University of Saskatchewan, priority 2021, dated 2025)
# Ends that are not written are not given here.
# Experiments:
# [1] = test system: Mannheimia haemolytica ATCC 33393; experiment: MIC, broth dilution; assay type: cell-based; settings: for MIC (μg/mL) M. haemolytica: Table 10, liquid broth; for MIC M. haemolytica: M. haemolytica ATCC 33393
# Experimental: (§1) MIC determination. MICs were measured using peptides with 95% purity. For bacterial studies, cation-adjusted Mueller Hinton (MH) broth was used as the growth medium whereas Yeast Peptone Dextrose (YPD; 10 g/L yeast extract, 20 g/L peptone, 20 g/L dextrose) was used for Candida spp. and other yeast. Microorganisms were diluted to an optical density of […] in MH or YPD broth and a 180 μl volume was mixed with 20 μl of peptide arrayed as a 2-fold dilution series in a flat-bottom 96-well microtitre plate. A control was performed using 20 μl of sterile water. Plates were incubated as standing cultures overnight at 37° C.
# (§2) Determination of minimum inhibitory concentrations. The MICs were measured for bioactive peptides identified from the initial screen. For bacterial studies, cation-adjusted Mueller Hinton (MH) broth was used as the growth medium whereas YPD was used for C. albicans. Bacterial cultures were diluted to a OD value of 6×10^−4 in MH broth and a 180 μl volume was mixed with 20 μl of peptide arrayed as 2-fold dilution series in a 96-well plate. For the positive control, 20 μl of sterile water was used. Plates were incubated as standing cultures overnight at 37° C. The lowest peptide concentration that resulted no observed microbial growth after an overnight treatment was defined as the MIC.
# The ability of STIP3 variants to inhibit the growth of Mannheimia haemolytica ATCC 33393 was evaluated. This included an alanine scan of STIP3-1 (FIG. 8 & Table 10) as well as 30 rationally-designed STIPs that were evaluated in the preceding Examples against other pathogens (Table 11). Substitutions at a greater number of sites were tolerated in the context of antimicrobial activity. Moreover, the inclusion of basic natural and unnatural amino acids (e.g. lysine, ornithine, and arginine) at positions 3, 4 and 11 (i.e. X1, X2, and X4 of SEQ ID NO: 32) to afford a more uniformly cationic peptide increased activity against M. haemolytica.
# M. luteus ATCC 4698 = experiment: MIC, broth dilution; assay type: cell-based, Micrococcus luteus; settings: for MIC (μg/mL) M. luteus: Table 4, liquid broth; for MIC M. luteus: M. luteus ATCC 4698
# Experimental: as §1, §2
# S. aureus ATCC 29213 = experiment: MIC, broth dilution; assay type: cell-based, Staphylococcus aureus; settings: for MIC (μg/mL) S. aureus: liquid broth; for MIC S. aureus: S. aureus ATCC 29213
# Experimental: as §1, §2
# C. albicans MYA-2876 = experiment: MIC, YPD broth; assay type: cell-based, Candida albicans; settings: Candida albicans MYA-2876
# Experimental: as §1, §2
Substance,MIC (μg/mL) M. haemolytica [1],MIC (μg/mL) M. luteus (M. luteus ATCC 4698),MIC (μg/mL) S. aureus (S. aureus ATCC 29213; Table 4),MIC (μg/mL) S. aureus (S. aureus ATCC 29213; Table 10),MIC M. haemolytica [1],MIC M. luteus (M. luteus ATCC 4698),MIC S. aureus (S. aureus ATCC 29213),MIC C. albicans (C. albicans MYA-2876)
"TVGGLVKWIADTVKKFA [L10A, TVGGLVKWIADTVKKFA]",200 µg/mL,200 µg/mL,> (> = >200 μg/mL (maximum concentration tested)),> (the use of > indicates an MIC > 200 μg/mL; the maximum concentration tested),,,,
TVKSFVNLILDTVKKYAK [STIP8-1],,,,,> (the use of > indicates an MIC >200 μg/mL; the maximum concentration tested),100 mg/L,> (the use of > indicates an MIC >200 μg/mL; the maximum concentration tested),100 mg/L
TVTKFVKLIAETVKKFTK [STIP9-1],,,,,200 mg/L,50 mg/L,> (the use of > indicates an MIC >200 μg/mL; the maximum concentration tested),100 mg/L
"TVGGLVKWILDTAKKFA [V13A, TVGGLVKWILDTAKKFA]",200 µg/mL,50 µg/mL,200 µg/mL,,,,,
"TVGGLVKWALDTVKKFA [I9A, TVGGLVKWALDTVKKFA]",> (the use of > indicates an MIC > 200 μg/mL; the maximum concentration tested),200 µg/mL,> (> = >200 μg/mL (maximum concentration tested)),> (the use of > indicates an MIC > 200 μg/mL; the maximum concentration tested),,,,
TVKSFVNLILKTVKKYAK [STIP8-2],,,,,100 mg/L,6.25 mg/L,> (the use of > indicates an MIC >200 μg/mL; the maximum concentration tested),100 mg/L
"TVGGLVKWILDTVKKAA [F16A, TVGGLVKWILDTVKKAA]",> (the use of > indicates an MIC > 200 μg/mL; the maximum concentration tested),200 µg/mL,> (> = >200 μg/mL (maximum concentration tested)),> (the use of > indicates an MIC > 200 μg/mL; the maximum concentration tested),,,,
TVTKFVKLIAKTVKKFTK-NH2 [STIP9-3],,,,,100 mg/L,3.13 mg/L,> (the use of > indicates an MIC >200 μg/mL; the maximum concentration tested),100 mg/L
"TVGGLVAWILDTVKKFA [K7A, TVGGLVAWILDTVKKFA]",> (the use of > indicates an MIC > 200 μg/mL; the maximum concentration tested),200 µg/mL,> (> = >200 μg/mL (maximum concentration tested)),> (the use of > indicates an MIC > 200 μg/mL; the maximum concentration tested),,,,
TVTKFVKLIAKTVKKFTK [STIP9-2],,,,,100 mg/L,6.25 mg/L,> (the use of > indicates an MIC >200 μg/mL; the maximum concentration tested),25 mg/L
"TVGGLAKWILDTVKKFA [V6A, TVGGLAKWILDTVKKFA]",100 µg/mL,50 µg/mL,> (> = >200 μg/mL (maximum concentration tested)),> (the use of > indicates an MIC > 200 μg/mL; the maximum concentration tested),,,,
TVKSFVNLILKTVKKYAK-NH2 [STIP8-3],,,,,50 mg/L,3.13 mg/L,> (the use of > indicates an MIC >200 μg/mL; the maximum concentration tested),> (the use of > indicates an MIC >200 μg/mL; the maximum concentration tested)
"TVGGLVKAILDTVKKFA [W8A, TVGGLVKAILDTVKKFA]",200 µg/mL,100 µg/mL,> (> = >200 μg/mL (maximum concentration tested)),> (the use of > indicates an MIC > 200 μg/mL; the maximum concentration tested),,,,
"TVGGAVKWILDTVKKFA [L5A, TVGGAVKWILDTVKKFA]",> (the use of > indicates an MIC > 200 μg/mL; the maximum concentration tested),100 µg/mL,> (> = >200 μg/mL (maximum concentration tested)),> (the use of > indicates an MIC > 200 μg/mL; the maximum concentration tested),,,,
"TAGGLVKWILDTVKKFA [V2A, TAGGLVKWILDTVKKFA]",100 µg/mL,50 µg/mL,> (> = >200 μg/mL (maximum concentration tested)),> (the use of > indicates an MIC > 200 μg/mL; the maximum concentration tested),,,,
